From ChEMBL document CHEMBL4321812, “Structure-based rational design of staurosporine-based fluorescent probe with broad-ranging kinase affinity for kinase panel application” (Bioorg Med Chem Lett, 2019)

Experiments:
[1] = target: NUAK family SNF1-like kinase 1 (Homo sapiens, UniProt O60285); assay: Binding affinity to recombinant full-length N-terminal His-FLAG-GST-tagged NUAK1 (unknown origin) expressed in baculovirus infected Sf9 insect cells incubated for 1 hr by TR-FRET assay
[2] = target: TGF-beta receptor type-2 (Homo sapiens, UniProt P37173); assay: Binding affinity to recombinant N-terminal His-FLAG-GST-tagged TGFBR2 (unknown origin) (194 to 567 residues) expressed in baculovirus infected Sf9 insect cells incubated for 1 hr by TR-FRET assay
[3] = target: Myosin light chain kinase, smooth muscle (Homo sapiens, UniProt Q15746); assay: Binding affinity to recombinant full-length N-terminal His-FLAG-GST-tagged MYLK (unknown origin) (1428 to 1771 residues) expressed in baculovirus infected Sf9 insect cells incubated for 1 hr by TR-FRET assay
[4] = target: Serine/threonine-protein kinase N2 (Homo sapiens, UniProt Q16513); assay: Binding affinity to recombinant full-length N-terminal His-FLAG-GST-tagged PKN2 (unknown origin) expressed in baculovirus infected Sf9 insect cells incubated for 1 hr by TR-FRET assay
[5] = target: Ribosomal protein S6 kinase alpha-1 (Homo sapiens, UniProt Q15418); assay: Binding affinity to recombinant full length human N-terminal GST-tagged RPS6KA1 expressed in baculovirus expression system using S6K peptide as substrate incubated for 1 hr by TR-FRET assay
[6] = target: Insulin receptor (Homo sapiens, UniProt P06213); assay: Binding affinity to recombinant full-length N-terminal His-FLAG-GST-tagged INSR (unknown origin) (1005 to 1310 residues) expressed in baculovirus infected Sf9 insect cells incubated for 1 hr by TR-FRET assay
[7] = target: Serine/threonine-protein kinase 38-like (Homo sapiens, UniProt Q9Y2H1); assay: Binding affinity to recombinant full-length N-terminal His-FLAG-GST-tagged STK38L (unknown origin) expressed in baculovirus infected Sf9 insect cells incubated for 1 hr by TR-FRET assay
[8] = target: Protein kinase C zeta type (Homo sapiens, UniProt Q05513); assay: Binding affinity to recombinant full-length N-terminal His-FLAG-GST-tagged PRKCZ (unknown origin) expressed in baculovirus infected Sf9 insect cells incubated for 1 hr by TR-FRET assay
Protein kinase C zeta type, sequence (Q05513 whole entry): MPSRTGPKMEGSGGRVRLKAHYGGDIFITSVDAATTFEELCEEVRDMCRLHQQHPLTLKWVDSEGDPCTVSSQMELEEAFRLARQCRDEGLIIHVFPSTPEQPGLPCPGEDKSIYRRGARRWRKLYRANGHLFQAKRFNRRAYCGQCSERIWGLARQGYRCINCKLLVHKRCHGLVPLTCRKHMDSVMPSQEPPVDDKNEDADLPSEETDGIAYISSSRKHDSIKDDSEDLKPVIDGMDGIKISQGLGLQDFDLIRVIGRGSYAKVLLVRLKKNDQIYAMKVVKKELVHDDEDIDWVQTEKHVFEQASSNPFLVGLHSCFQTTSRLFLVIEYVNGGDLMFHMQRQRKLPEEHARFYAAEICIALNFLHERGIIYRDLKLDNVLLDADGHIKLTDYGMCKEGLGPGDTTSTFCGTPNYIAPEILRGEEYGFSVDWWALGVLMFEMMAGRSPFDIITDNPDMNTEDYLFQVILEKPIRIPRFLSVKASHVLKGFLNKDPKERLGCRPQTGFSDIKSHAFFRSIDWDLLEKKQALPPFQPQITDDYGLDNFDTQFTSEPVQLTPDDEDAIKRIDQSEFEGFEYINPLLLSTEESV

[9] = target: Serine/threonine-protein kinase DCLK3 (Homo sapiens, UniProt Q9C098); assay: Binding affinity to recombinant full-length N-terminal His-FLAG-tagged DCLK3 (unknown origin) expressed in baculovirus infected Sf9 insect cells incubated for 1 hr by TR-FRET assay
[10] = target: Testis-specific serine/threonine-protein kinase 3 (Homo sapiens, UniProt Q96PN8); assay: Binding affinity to recombinant full-length N-terminal His-FLAG-GST-tagged TSSK3 (unknown origin) expressed in baculovirus infected Sf9 insect cells incubated for 1 hr by TR-FRET assay
Testis-specific serine/threonine-protein kinase 3, sequence (Q96PN8 whole entry): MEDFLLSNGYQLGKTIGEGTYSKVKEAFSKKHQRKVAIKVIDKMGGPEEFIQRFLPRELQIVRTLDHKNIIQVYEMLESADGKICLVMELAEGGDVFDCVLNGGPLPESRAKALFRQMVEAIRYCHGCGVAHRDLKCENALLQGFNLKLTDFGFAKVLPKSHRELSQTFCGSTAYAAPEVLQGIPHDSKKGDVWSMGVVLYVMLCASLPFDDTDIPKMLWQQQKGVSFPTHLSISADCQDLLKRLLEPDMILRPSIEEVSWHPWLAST

[11] = target: Serine/threonine-protein kinase 16 (Homo sapiens, UniProt O75716); assay: Binding affinity to recombinant full-length N-terminal His-FLAG-GST-tagged STK16 (unknown origin) expressed in baculovirus infected Sf9 insect cells incubated for 1 hr by TR-FRET assay
Serine/threonine-protein kinase 16, sequence (O75716 whole entry, the tested form may be a part): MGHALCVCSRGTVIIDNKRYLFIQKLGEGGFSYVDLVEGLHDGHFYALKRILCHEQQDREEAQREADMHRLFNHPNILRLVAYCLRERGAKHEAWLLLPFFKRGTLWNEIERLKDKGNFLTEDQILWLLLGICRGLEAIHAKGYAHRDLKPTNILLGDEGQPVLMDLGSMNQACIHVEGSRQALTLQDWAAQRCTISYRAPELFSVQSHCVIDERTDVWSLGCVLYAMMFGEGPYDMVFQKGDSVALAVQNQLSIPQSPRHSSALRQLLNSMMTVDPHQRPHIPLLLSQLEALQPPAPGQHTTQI

[12] = target: Serine/threonine-protein kinase MRCK alpha (Homo sapiens, UniProt Q5VT25); assay: Binding affinity to recombinant full-length N-terminal His-FLAG-GST-tagged CDC42BPA (unknown origin) (1 to 574 residues) expressed in baculovirus infected Sf9 insect cells incubated for 1 hr by TR-FRET assay
[13] = target: Serine/threonine-protein kinase 32C (Homo sapiens, UniProt Q86UX6); assay: Binding affinity to recombinant full-length N-terminal His-FLAG-GST-tagged STK32C (unknown origin) (66 to 486 residues) expressed in baculovirus infected Sf9 insect cells incubated for 1 hr by TR-FRET assay
[14] = target: Mitogen-activated protein kinase kinase kinase 14 (Homo sapiens, UniProt Q99558); assay: Binding affinity to recombinant N-terminal His-FLAG-GST-tagged MAP3K14 (unknown origin) (319 to 947 residues) expressed in baculovirus infected Sf9 insect cells incubated for 1 hr by TR-FRET assay
Mitogen-activated protein kinase kinase kinase 14, sequence (Q99558 whole entry, the tested form may be a part): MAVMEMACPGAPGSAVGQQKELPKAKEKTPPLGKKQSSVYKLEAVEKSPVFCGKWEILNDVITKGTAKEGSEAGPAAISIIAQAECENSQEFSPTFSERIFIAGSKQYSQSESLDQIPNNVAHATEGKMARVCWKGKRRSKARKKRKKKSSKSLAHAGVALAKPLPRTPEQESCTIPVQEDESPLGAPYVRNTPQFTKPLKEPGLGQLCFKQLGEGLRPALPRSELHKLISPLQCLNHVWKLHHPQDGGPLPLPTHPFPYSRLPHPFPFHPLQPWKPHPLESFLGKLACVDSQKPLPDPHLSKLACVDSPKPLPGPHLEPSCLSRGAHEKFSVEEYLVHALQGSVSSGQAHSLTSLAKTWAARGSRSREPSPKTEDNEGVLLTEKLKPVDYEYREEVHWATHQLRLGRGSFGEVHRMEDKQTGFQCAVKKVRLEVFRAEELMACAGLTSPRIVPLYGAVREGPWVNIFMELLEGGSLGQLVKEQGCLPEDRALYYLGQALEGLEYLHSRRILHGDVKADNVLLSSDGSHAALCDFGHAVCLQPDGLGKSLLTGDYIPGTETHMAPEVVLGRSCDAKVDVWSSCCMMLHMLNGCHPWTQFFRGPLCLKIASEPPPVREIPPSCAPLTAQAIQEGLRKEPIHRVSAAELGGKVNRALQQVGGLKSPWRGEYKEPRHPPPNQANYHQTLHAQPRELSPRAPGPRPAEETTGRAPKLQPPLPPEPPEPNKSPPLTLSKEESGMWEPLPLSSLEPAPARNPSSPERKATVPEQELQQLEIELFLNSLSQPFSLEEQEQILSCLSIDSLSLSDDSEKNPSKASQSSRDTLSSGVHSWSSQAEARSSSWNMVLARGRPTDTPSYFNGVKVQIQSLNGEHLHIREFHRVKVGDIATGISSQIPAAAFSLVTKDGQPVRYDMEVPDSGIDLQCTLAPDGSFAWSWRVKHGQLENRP

[15] = target: Vascular endothelial growth factor receptor 3 (Homo sapiens, UniProt P35916); assay: Binding affinity to recombinant N-terminal His-FLAG-GST-tagged FLT4 (unknown origin) (798 to 1298 residues) expressed in baculovirus infected Sf9 insect cells incubated for 1 hr by TR-FRET assay
[16] = target: Homeodomain-interacting protein kinase 3 (Homo sapiens, UniProt Q9H422); assay: Binding affinity to recombinant N-terminal His-FLAG-GST-tagged HIPK3 (unknown origin) (161 to 562 residues) expressed in baculovirus infected Sf9 insect cells incubated for 1 hr by TR-FRET assay
Homeodomain-interacting protein kinase 3, sequence (Q9H422 whole entry, the tested form may be a part): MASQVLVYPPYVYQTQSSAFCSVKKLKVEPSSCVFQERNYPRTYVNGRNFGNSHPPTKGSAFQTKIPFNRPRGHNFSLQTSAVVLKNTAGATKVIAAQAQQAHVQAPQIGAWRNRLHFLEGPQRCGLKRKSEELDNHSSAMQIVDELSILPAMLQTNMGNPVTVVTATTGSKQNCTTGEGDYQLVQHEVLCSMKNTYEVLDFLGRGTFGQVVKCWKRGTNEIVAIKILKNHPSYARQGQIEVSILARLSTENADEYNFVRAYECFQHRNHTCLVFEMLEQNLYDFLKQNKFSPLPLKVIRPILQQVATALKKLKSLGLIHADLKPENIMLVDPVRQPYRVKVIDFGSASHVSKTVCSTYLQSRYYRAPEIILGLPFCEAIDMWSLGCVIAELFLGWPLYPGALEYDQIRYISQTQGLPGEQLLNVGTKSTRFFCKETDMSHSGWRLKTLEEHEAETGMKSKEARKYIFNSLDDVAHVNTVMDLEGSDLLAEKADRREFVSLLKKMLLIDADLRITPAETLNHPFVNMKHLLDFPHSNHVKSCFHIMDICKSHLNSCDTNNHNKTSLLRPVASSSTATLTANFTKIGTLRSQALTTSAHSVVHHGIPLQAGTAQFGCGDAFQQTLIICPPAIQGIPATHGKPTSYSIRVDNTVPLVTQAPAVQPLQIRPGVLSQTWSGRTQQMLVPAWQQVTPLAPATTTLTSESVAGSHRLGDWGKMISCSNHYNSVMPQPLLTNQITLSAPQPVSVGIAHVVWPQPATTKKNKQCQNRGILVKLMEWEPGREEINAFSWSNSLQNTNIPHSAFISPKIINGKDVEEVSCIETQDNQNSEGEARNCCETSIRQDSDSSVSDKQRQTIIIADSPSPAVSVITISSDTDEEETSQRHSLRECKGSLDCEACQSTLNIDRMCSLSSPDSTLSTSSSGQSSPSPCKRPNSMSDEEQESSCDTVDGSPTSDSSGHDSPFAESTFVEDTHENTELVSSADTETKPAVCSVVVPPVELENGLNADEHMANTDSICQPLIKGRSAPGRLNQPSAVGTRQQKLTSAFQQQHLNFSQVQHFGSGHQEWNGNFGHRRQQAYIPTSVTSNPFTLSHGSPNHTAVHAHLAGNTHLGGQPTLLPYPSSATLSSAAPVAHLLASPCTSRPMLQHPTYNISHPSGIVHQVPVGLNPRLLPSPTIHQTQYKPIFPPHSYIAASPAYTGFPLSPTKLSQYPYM

[17] = target: High affinity nerve growth factor receptor (Homo sapiens, UniProt P04629); assay: Binding affinity to recombinant full-length N-terminal His-FLAG-GST-tagged NTRK1 (unknown origin) (436 to 790 residues) expressed in baculovirus infected Sf9 insect cells incubated for 1 hr by TR-FRET assay
[18] = target: Fibroblast growth factor receptor 4 (Homo sapiens, UniProt P22455); assay: Binding affinity to recombinant N-terminal His-FLAG-GST-tagged FGFR4 (unknown origin) (460 to 802 residues) expressed in baculovirus infected Sf9 insect cells incubated for 1 hr by TR-FRET assay
[19] = target: Hepatocyte growth factor receptor (Homo sapiens, UniProt P08581); assay: Binding affinity to recombinant full-length N-terminal His-FLAG-GST-tagged MET (unknown origin) (956 to 1390 residues) expressed in baculovirus infected Sf9 insect cells incubated for 1 hr by TR-FRET assay
[20] = target: Myotonin-protein kinase (Homo sapiens, UniProt Q09013); assay: Binding affinity to recombinant full-length N-terminal His-FLAG-GST-tagged DMPK (unknown origin) expressed in baculovirus infected Sf9 insect cells incubated for 1 hr by TR-FRET assay
[21] = target: Tyrosine-protein kinase FRK (Homo sapiens, UniProt P42685); assay: Binding affinity to recombinant full-length N-terminal His-FLAG-GST-tagged FRK (unknown origin) (223 to 505 residues) expressed in baculovirus infected Sf9 insect cells incubated for 1 hr […] by TR-FRET assay
Tyrosine-protein kinase FRK, sequence (P42685 whole entry, the tested form may be a part): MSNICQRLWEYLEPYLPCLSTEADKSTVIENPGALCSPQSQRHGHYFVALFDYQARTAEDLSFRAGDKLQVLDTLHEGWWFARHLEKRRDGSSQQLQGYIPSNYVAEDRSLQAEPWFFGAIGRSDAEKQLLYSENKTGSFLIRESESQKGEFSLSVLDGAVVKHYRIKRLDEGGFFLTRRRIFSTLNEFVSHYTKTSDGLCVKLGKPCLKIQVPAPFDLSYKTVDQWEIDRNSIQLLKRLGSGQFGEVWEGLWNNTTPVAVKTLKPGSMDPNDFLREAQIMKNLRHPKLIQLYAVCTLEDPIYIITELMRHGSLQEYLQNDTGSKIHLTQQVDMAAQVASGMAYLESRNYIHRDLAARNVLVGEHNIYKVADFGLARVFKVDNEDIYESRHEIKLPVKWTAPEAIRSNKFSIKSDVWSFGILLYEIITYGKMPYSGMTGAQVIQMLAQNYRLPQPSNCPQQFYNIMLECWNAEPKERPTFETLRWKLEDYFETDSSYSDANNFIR

[22] = target: Mitogen-activated protein kinase 8 (Homo sapiens, UniProt P45983); assay: Binding affinity to recombinant N-terminal His-FLAG-GST-tagged MAPK8 (unknown origin) (2 to 364 residues) expressed in baculovirus infected Sf9 insect cells incubated for 1 hr by TR-FRET assay
[23] = target: Cyclin-C/Cyclin-dependent kinase 19 (Homo sapiens, UniProt Q9BWU1); assay: Binding affinity to recombinant human full length N-terminal GST-tagged CDK19 co-expressed with N-terminal GST-tagged CyclinC expressed in baculovirus expression system using RNA polymerase peptide as substrate incubated for 1 hr by TR-FRET assay
[24] = target: Serine/threonine-protein kinase ULK3 (Homo sapiens, UniProt Q6PHR2); assay: Binding affinity to recombinant full-length N-terminal His-FLAG-GST-tagged ULK3 (unknown origin) expressed in baculovirus infected Sf9 insect cells incubated for 1 hr by TR-FRET assay
Serine/threonine-protein kinase ULK3, sequence (Q6PHR2 whole entry): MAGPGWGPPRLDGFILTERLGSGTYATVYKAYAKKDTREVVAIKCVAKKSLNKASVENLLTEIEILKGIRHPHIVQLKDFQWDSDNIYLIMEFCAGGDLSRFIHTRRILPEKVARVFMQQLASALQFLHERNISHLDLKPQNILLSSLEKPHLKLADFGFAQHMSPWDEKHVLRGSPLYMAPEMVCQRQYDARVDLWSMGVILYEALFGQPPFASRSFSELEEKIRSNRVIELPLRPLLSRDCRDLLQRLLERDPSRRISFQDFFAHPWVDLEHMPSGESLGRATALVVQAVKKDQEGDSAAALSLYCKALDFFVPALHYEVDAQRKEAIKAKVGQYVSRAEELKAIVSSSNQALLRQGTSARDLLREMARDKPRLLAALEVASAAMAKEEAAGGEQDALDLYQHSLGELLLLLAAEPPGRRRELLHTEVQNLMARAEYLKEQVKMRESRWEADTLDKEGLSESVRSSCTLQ

NUAK family SNF1-like kinase 1, sequence (O60285 whole entry, the tested form may be a part): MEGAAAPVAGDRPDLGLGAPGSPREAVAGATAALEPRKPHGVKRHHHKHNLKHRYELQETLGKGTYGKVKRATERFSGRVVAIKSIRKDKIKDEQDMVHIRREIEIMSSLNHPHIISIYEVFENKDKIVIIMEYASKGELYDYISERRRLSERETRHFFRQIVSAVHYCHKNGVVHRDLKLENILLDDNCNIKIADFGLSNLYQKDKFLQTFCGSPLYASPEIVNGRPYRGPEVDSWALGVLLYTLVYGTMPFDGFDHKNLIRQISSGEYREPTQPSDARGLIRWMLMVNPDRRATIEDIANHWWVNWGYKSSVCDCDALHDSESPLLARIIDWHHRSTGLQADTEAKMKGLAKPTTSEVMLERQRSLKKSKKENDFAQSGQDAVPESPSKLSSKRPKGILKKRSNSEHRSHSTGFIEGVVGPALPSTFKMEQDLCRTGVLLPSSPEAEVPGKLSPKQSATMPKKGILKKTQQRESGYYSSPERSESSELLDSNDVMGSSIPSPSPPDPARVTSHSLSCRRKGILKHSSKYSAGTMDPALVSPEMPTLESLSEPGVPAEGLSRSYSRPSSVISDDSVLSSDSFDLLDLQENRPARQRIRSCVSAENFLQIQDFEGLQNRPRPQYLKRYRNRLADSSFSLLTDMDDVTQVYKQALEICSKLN

Compound	Kd [1] [nM]	Kd [2] [nM]	Kd [3] [nM]	Kd [4] [nM]	Kd [5] [nM]	Kd [6] [nM]	Kd [7] [nM]	Kd [8] [nM]	Kd [9] [nM]	Kd [10] [nM]	Kd [11] [nM]	Kd [12] [nM]	Kd [13] [nM]	Kd [14] [nM]	Kd [15] [nM]	Kd [16] [nM]	Kd [17] [nM]	Kd [18] [nM]	Kd [19] [nM]	Kd [20] [nM]	further results
CO[C@@H]1[C@H](NCCOCCOCCOCCNC(=O)CCC2=[N+]3C(=Cc4c(C)cc(C)n4[B-]3(F)F)C=C2)C[C@H]2O[C@]1(C)n1c3ccccc3c3c4c(c5c6ccccc6n2c5c31)C(=O)NC4	15	854	369	6	16	1860	759	1250	60	380	365	43	448	352	61	798	35	718	930	90	Kd [21]: 332 nM; Kd [22]: 286 nM; Kd [23]: 259 nM; Kd [24]: 16 nM
CO[C@@H]1[C@H](N(C)CCOCCOCCOCCNC(=O)CCC2=[N+]3C(=Cc4c(C)cc(C)n4[B-]3(F)F)C=C2)C[C@H]2O[C@]1(C)n1c3ccccc3c3c4c(c5c6ccccc6n2c5c31)C(=O)NC4	13	> 2000	298	4	36	1690	> 2000	1350	104	330	110	25	326	445	78	1030	25	1490	812	94	Kd [21]: 372 nM; Kd [22]: 536 nM; Kd [23]: 125 nM; Kd [24]: 14 nM
